Source: BigSolDB 2.1

O=P1(c2cc(O)ccc2O)Oc2ccccc2-c2ccccc21 (configuration not stated)
Conditions	solubility (mole fraction)
in 2-ethoxyethanol, 293.15 K	0.000896
in 2-ethoxyethanol, 298.15 K	0.0012
in 2-ethoxyethanol, 302.98 K	0.00157
in 2-ethoxyethanol, 308 K	0.00207
in 2-ethoxyethanol, 313 K	0.00248
in 2-ethoxyethanol, 317.8 K	0.00347
in 2-ethoxyethanol, 322.7 K	0.00439
in 2-ethoxyethanol, 327.65 K	0.00556
in 2-ethoxyethanol, 332.65 K	0.00702
in 2-ethoxyethanol, 337.6 K	0.00896
in 2-ethoxyethanol, 342.58 K	0.0109
in 2-ethoxyethanol, 347.4 K	0.0134
in 2-ethoxyethanol, 352.83 K	0.0168
in 2-ethoxyethanol, 357.7 K	0.0207
in 2-ethoxyethanol, 362.67 K	0.0249
in 2-ethoxyethanol, 367.65 K	0.0301
in acetone, 292.15 K	0.00153
in acetone, 297.15 K	0.00182
in acetone, 302.15 K	0.00226
in acetone, 307.85 K	0.00304
in acetone, 312.9 K	0.0037
in acetone, 317.65 K	0.00427
in acetone, 322.6 K	0.00551
in ethanol, 293.15 K	0.00205
in ethanol, 298.1 K	0.00224
in ethanol, 303.05 K	0.00241
in ethanol, 307.95 K	0.0027
in ethanol, 312.95 K	0.00282
in ethanol, 317.8 K	0.00309
in ethanol, 322.8 K	0.00332
in ethanol, 327.85 K	0.00352
in methanol, 293.15 K	0.00107
in methanol, 298 K	0.00128
in methanol, 302.9 K	0.0015
in methanol, 307.85 K	0.00182
in methanol, 312.84 K	0.00227
in methanol, 317.6 K	0.0026
in methanol, 322.63 K	0.00292
in water, 303 K	0.000139
in water, 307.95 K	0.000143
in water, 312.85 K	0.000151
in water, 317.6 K	0.000155
in water, 322.45 K	0.000165
in water, 327.65 K	0.000168
in water, 332.5 K	0.000175
in water, 337.55 K	0.000184
in water, 342.35 K	0.000189
